Test results reported in US9266881B2, “Triazolopyridinone PDE10 inhibitors” (Merck Sharp & Dohme Corp., priority 2011, dated 2016).
Where two headings read alike, the source gives them in different places.

Molecular target: human PDE10A2 (Homo sapiens (Human), UniProt Q9Y233)
Assay: PDE10 fluorescence polarization (IMAP FP) inhibition assay
Assay type: biochemical
Experimental: The activity of the compounds in accordance with the present invention as PDE10 inhibitors may be readily determined without undue experimentation using a fluorescence polarization (FP) methodology that is well known in the art (Huang, W., et al., J. Biomol Screen, 2002, 7: 215).
In a typical experiment the PDE10 inhibitory activity of the compounds of the present invention was determined in accordance with the following experimental method. PDE10A2 was amplified from human fetal brain cDNA (Clontech, Mountain View, Calif.) using a forward primer corresponding to nucleotides 56-77 of human PDE10A2 (Accession No. AF127480, Genbank Identifier 4894716), containing a Kozak consensus sequence, and a reverse primer corresponding to nucleotides 2406-2413 of human PDE10A2 (Accession No. AF127480, Genbank Identifier 4894716). Amplification with Easy-A polymerase (Stratagene, La Jolla, Calif.) was 95° C. for 2 minutes followed by thirty three cycles of 95° C. for 40 seconds, 55° C. for 30 seconds, and 72° C. for 2 minutes 48 seconds. Final extension was 72° C. for 7 minutes. The PCR product was TA cloned into pcDNA3.2-TOPO (Invitrogen, Carlsbad, Calif.) according to standard protocol. AD293 cells with 70-80% confluency were transiently transfected with human PDE10A2/pcDNA3.2-TOPO using Lipofectamine 2000 according to manufacturer specifications (Invitrogen, Carlsbad, Calif.). Cells were harvested 48 hours post-transfection and lysed by sonication (setting 3, 10×5 sec pulses) in a buffer containing 20 mM HEPES, 1 mM EDTA and protease inhibitor cocktail (Roche). Lysate was collected by centrifugation at 75,000×g for 20 minutes. Supernatant containing the cytoplasmic fraction was used for evaluation of PDE10A2 activity. The fluorescence polarization assay for cyclic nucleotide phosphodiesterases was performed using an IMAP® FP kit supplied by Molecular Devices, Sunnyvale, Calif. (product #R8139). IMAP® technology has been applied previously to phosphodiesterase assays (Huang, W., et al., J. Biomol Screen, 2002, 7: 215). Assays were performed at room temperature in 384-well microtiter plates with an incubation volume of 20.2 μl. Solutions of test compounds were prepared in DMSO and serially diluted with DMSO to yield 8 μL of each of 10 solutions differing by 3-fold in concentration, at 32 serial dilutions per plate. 100% inhibition is determined using a known PDE10 inhibitor, which can be any compound that is present at 5,000 times its Ki value in the assay described as follows, such as papaverine (see Siuciak, et al. Neuropharmacology (2006) 51:386-396; Becker, et al. Behav Brain Res (2008) 186(2):155-60; Threlfell, et al., J Pharmacol Exp Ther (2009) 328(3):785-795), 2-{4-[pyridin-4-yl-1-(2,2,2-trifluoroethyl)-1H-pyrazol-3-yl]phenoxymethyl}quinoline succinic acid or 2-[4-(1-methyl-4-pyridin-4-yl-1H-pyrazol-3-yl)-phenoxymethyl]quinoline succinic acid (see Schmidt, et al. J Pharmacol Exp Ther (2008) 325:681-690; Threlfell, et al., J Pharmacol Exp Ther (2009) 328(3): 785-795). 0% of inhibition is determined by using DMSO (1% final concentrations).
A Labcyte Echo 555 (Labcyte, Sunnyvale, Calif.) is used to dispense 200 nL from each well of the titration plate to the 384 well assay plate. A solution of enzyme (1/1600 dilution from aliquots; sufficient to produce 20% substrate conversion) and a separate solution of FAM-labeled cAMP PDE from Molecular Devices (product #R7506), at a final concentration of 50 nM are made in the assay buffer (10 mM Tris HCl, pH 7.2, 10 mM MgCl2, 0.05% NaN3 0.01% Tween-20, and 1 mM DTT). The enzyme and the substrate are then added to the assay plates in two consecutive additions of 10 μL, and then shaken to mix. The reaction is allowed to proceed at room temperature for 30 minutes. A binding solution is then made from the kit components, comprised of 80% Solution A, 20% Solution B and binding reagent at a volume of 1/600 the total binding solution. […]

[1] = human PDE10A2 lysate, IMAP FP, 50 nM FAM-labeled cAMP, room temperature, read-out: PDE10A Ki
[2] = human PDE10 enzyme, aforementioned assays, read-out: Ki for inhibiting the human PDE10 enzyme (range given)

Sequence of human PDE10A2 (Q9Y233 267-1055): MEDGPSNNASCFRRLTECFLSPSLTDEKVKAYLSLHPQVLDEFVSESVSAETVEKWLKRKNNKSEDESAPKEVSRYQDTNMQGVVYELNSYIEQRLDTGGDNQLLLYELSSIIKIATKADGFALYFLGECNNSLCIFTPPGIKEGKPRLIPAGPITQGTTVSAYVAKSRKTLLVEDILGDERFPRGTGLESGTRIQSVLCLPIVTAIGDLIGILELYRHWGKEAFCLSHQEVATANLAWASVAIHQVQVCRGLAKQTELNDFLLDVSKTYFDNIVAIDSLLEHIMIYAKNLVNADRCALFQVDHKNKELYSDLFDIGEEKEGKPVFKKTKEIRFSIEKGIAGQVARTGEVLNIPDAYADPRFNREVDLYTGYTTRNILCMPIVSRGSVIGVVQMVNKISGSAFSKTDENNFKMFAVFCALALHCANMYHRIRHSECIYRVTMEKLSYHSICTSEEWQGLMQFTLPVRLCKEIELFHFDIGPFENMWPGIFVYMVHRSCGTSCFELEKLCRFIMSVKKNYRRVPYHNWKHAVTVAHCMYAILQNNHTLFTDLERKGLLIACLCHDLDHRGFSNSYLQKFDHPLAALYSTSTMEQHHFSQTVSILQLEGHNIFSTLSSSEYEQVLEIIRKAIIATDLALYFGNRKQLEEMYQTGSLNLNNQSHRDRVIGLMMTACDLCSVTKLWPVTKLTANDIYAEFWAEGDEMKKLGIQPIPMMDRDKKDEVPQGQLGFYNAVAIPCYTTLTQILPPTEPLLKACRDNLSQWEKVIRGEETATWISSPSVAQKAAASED

| Ki [1] [µM] | Ki [2] [µM] | Structure (SMILES) |
| --- | --- | --- |
| 0.037 | – | O=c1n(CCc2ccc3ccccc3n2)nc2c(Br)cccn12 [Compound 1-6] |
| 0.059 | – | O=c1n(CCc2ccc3ccccc3n2)nc2cccc(Br)n12 [Compound 2-4, 5-bromo-2-(2-quinolin-2-ylethyl)[1,2,4]triazolo[4,3-a]pyridin-3(2H)-one] |
| 0.155 | – | O=c1n(CCc2ccc3ccccc3n2)nc2ccc(Br)cn12 [Compound 3-4, 6-bromo-2-(2-quinolin-2-ylethyl)[1,2,4]triazolo[4,3-a]pyridin-3(2H)-one] |
| 0.022 | – | O=c1n(CCc2ccc3ccccc3n2)nc2c(-c3ncco3)cccn12 [Compound 4-1, 8-(1,3-oxazol-2-yl)-2-(2-quinolin-2-ylethyl)[1,2,4]triazolo[4,3-a]pyridin-3(2H)-one] |
| 0.0044 | 0.0001 to 0.01 | O=c1n(CCc2ccc3ccccc3n2)nc2cccc(-c3ccncc3)n12 [Compound 5-1, 5-pyridin-4-yl-2-(2-quinolin-2-ylethyl)[1,2,4]triazolo[4,3-a]pyridin-3(2H)-one] |
| 0.0025 | 0.0001 to 0.01 | O=c1n(CCc2ccc3ccccc3n2)nc2cccc(N3CCOCC3)n12 [Compound 6-1, 5-morpholin-4-yl-2-(2-quinolin-2-ylethyl)[1,2,4]triazolo[4,3-a]pyridin-3(2H)-one] |
| 0.011 | – | COc1ccc(C(C)(O)c2cccc3nn(CCc4ccc5ccccc5n4)c(=O)n23)cc1 (stereo not shown) [Compound 7-2, 5-[1-hydroxy-1-(4-methoxyphenyl)ethyl]-2-(2 - quinolin-2-ylethyl)[1,2,4]triazolo[4,3-a]pyridin-3(2H)-one] |
| 0.097 | – | O=C(Nc1cccnc1)c1cccc2nn(CCc3ccc4ccccc4n3)c(=O)n12 [Compound 8-2, 3-oxo-N-pyridin-3-yl-2-(2-quinolin-2-ylethyl)-2,3-dihydro[1,2,4]triazolo[4,3-a]pyridine-5-carboxamide] |
| 0.51 | – | O=c1n(CCc2ccc3ccccc3n2)nc2ccc(-c3cccnc3)cn12 [Compound 9-1, 6-pyridin-3-yl-2-(2-quinolin-2-ylethyl)[1,2,4]triazolo[4,3-a]pyridin-3(2H)-one] |
| 0.103 | – | O=c1n(CCc2ccc3ncccc3n2)nc2c(-c3ccncc3)cccn12 [Compound 10-4, 2-[2-(1,5-naphthyridin-2-yl)ethyl]-8-pyridin-4-yl[1,2,4]triazolo[4,3-a]pyridin-3(2H)-one] |
| 0.0072 | 0.0001 to 0.01 | Cn1cc(-c2ccccc2)nc1CCn1nc2cccc(Br)n2c1=O [Compound 11-4, 5-bromo-2-[2-(1-methyl-4-phenyl-1H-imidazol-2-yl)ethyl][1,2,4]triazolo[4,3-a]pyridin-3(2H)-one] |
| 0.00041 | 0.0001 to 0.01 | Cn1cc(-c2ccccc2)nc1CCn1nc2cccc(N3CCOCC3)n2c1=O [Compound 12-1, 2-[2-(1-methyl-4-phenyl-1H-imidazol-2-yl)ethyl]-5-morpholin-4-yl[1,2,4]triazolo[4,3-a]pyridin-3(2H)-one] |
| 0.546 | – | O=c1n(C[C@@H]2C[C@H]2c2ccccn2)nc2cccc(N3CCOCC3)n12 [Compound 13-6, 5-morpholino-2-(((1R,2R)-2-(pyridin-2-yl)cyclopropyl)methyl)-[1,2,4]triazolo[4,3-a]pyridin-3(2H)-one] |
| 0.009 | 0.0001 to 0.01 | O=c1n(CCc2ccc3ccccc3n2)nc2cccc(-c3cccnc3)n12 [Compound A-1, 5-pyridin-3-yl-2-(2-quinolin-2-ylethyl)[1,2,4]triazolo[4,3-a]pyridin-3(2H)-one] |
| 0.074 | – | Cc1cccn2c(=O)n(CCc3ccc4ccccc4n3)nc12 [Compound A-2, 8-methyl-2-(2-quinolin-2-ylethyl)[1,2,4]triazolo[4,3-a]pyridin-3(2H)-one] |
| 0.017 | – | Cc1ccc(-c2cccc3nn(CCc4ccc5ccccc5n4)c(=O)n23)cc1 [Compound A-3, 5-(4-methylphenyl)-2-(2-quinolin-2-ylethyl)[1,2,4]triazolo[4,3-a]pyridin-3(2H)-one] |
| 0.023 | – | O=c1n(CCc2ccc3ccccc3n2)nc2cccc(-c3cncs3)n12 [Compound A-4, 2-(2-quinolin-2-ylethyl)-5-(1,3-thiazol-5-yl)[1,2,4]triazolo[4,3-a]pyridin-3(2H)-one] |
| 0.02 | – | O=c1n(CCc2ccc3ccccc3n2)nc2cccc(-c3ccccc3)n12 [Compound A-5, 5-phenyl-2-(2-quinolin-2-ylethyl)[1,2,4]triazolo[4,3-a]pyridin-3(2H)-one] |
| 0.019 | – | O=c1n(CCc2ccc3ccccc3n2)nc2cccc(N3CCCCC3)n12 [Compound A-6, 5-piperidin-1-yl-2-(2-quinolin-2-ylethyl)[1,2,4]triazolo[4,3-a]pyridin-3(2H)-one] |
| 0.012 | – | O=c1n(CCc2ccc3ccccc3n2)nc2cccc(NCc3cccnc3)n12 [Compound A-7, 5-[(pyridin-3-ylmethyl)amino]-2-(2-quinolin-2-ylethyl)[1,2,4]triazolo[4,3-a]pyridin-3(2H)-one] |
| 0.072 | – | CC(C)(O)c1cccc2nn(CCc3ccc4ccccc4n3)c(=O)n12 [Compound A-8, 5-(1-hydroxy-1-methylethyl)-2-(2-quinolin-2-ylethyl)[1,2,4]triazolo[4,3-a]pyridin-3(2H)-one] |
| 0.002 | 0.0001 to 0.01 | Cn1cc(-c2ccccc2)nc1CCn1nc2cccc(-c3ccncc3)n2c1=O [Compound B-1, 2-[2-(1-methyl-4-phenyl-1H-imidazol-2-yl)ethyl]-5-pyridin-4-yl[1,2,4]triazolo[4,3-a]pyridin-3(2H)-one] |
